Laboratory results from patent US8993574B2, “Pyrrole antifungal agents” (F2G Ltd, priority 2008, dated 2015).
In brackets after ≈: the same amount, converted by molar mass.

Key:
Type in all cases: cell-based
[1] = system: Aspergillus flavus; test: MIC, YAG medium; details: 24 h at 35° C, MIC banded into grades; for MIC: Aspergillus flavus, 24 h, read-out: MIC grade, A. flavus
In short: (§1)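 Broth microdilution in YAG medium tests compound over 50-0.05 mg/L against spores at 1−2×10^4 cfu/mL. After 24 h incubation at 35° C, optical density at 485 nm gives growth, and the MIC is the lowest concentration reducing it by more than 70% relative to untreated control.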

[2] = system: Aspergillus fumigatus AF210; test: MIC, YAG medium; details: 24 h at 35° C, MIC banded into grades; for MIC: Aspergillus fumigatus, read-out: MIC grade, A. fumigatus 210
In short: as §1

[3] = system: Aspergillus fumigatus AF293; test: MIC, YAG medium; details: 24 h at 35° C, MIC banded into grades; for MIC: Aspergillus fumigatus, read-out: MIC grade, A. fumigatus
In short: as §1

[4] = system: Aspergillus niger; test: MIC, YAG medium; details: 24 h at 35° C, MIC banded into grades; for MIC: Aspergillus niger, read-out: MIC grade, A. niger
In short: as §1

[5] = system: Aspergillus terreus AT49; test: MIC, YAG medium; details: 24 h at 35° C, MIC banded into grades; for MIC: Aspergillus terreus, read-out: MIC grade, A. terreus 49
In short: as §1

[6] = system: Aspergillus terreus AT4; test: MIC, YAG medium; details: 24 h at 35° C, MIC banded into grades; for MIC: Aspergillus terreus, read-out: MIC grade, A. terreus
In short: as §1

[7] = system: Aspergillus flavus; test: MIC, RPMI medium; details: MIC banded into grades; for MIC: Aspergillus flavus, read-out: MIC grade, A. flavus
In short: (§2)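 RPMI (2% glucose, 0.135 M MOPS, pH 7.0) microdilution; drug 50-0.05 mg/L doubling series; inoculum 1−2×10^4 cfu/mL; 24-48 h, 35° C; OD485; MIC = lowest conc. with >80% inhibition vs drug-free control.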

[8] = system: Aspergillus fumigatus AF210; test: MIC, RPMI medium; details: for MIC: Aspergillus fumigatus, AF210, MIC banded into grades, read-out: MIC grade, A. fumigatus 210
In short: as §2

[9] = system: Aspergillus fumigatus AF293; test: MIC, RPMI medium; details: for MIC: Aspergillus fumigatus, AF293, MIC banded into grades, read-out: MIC grade, A. fumigatus
In short: as §2

[10] = system: Aspergillus niger; test: MIC, RPMI medium; details: MIC banded into grades; for MIC: Aspergillus niger, read-out: MIC grade, A. niger
In short: as §2

[11] = system: Aspergillus terreus AT49; test: MIC, RPMI medium; details: for MIC: Aspergillus terreus, AT49, MIC banded into grades, read-out: MIC grade, A. terreus 49
In short: as §2

[12] = system: Aspergillus terreus AT4; test: MIC, RPMI medium; details: for MIC: Aspergillus terreus, AT4, MIC banded into grades, read-out: MIC grade, A. terreus
In short: as §2

Compound	MIC [1] [µg/mL]	MIC [2] [µg/mL]	MIC [3] [µg/mL]	MIC [4] [µg/mL]	MIC [5] [µg/mL]	MIC [6] [µg/mL]	MIC [7] [µg/mL]	MIC [8] [µg/mL]	MIC [9] [µg/mL]	MIC [10] [µg/mL]	MIC [11] [µg/mL]	MIC [12] [µg/mL]	also measured
COCC=CCn1c(C)cc(-c2ccccc2)c1C(=O)C(=O)Nc1ccc(N2CCN(c3cc(C)cc(C)n3)CC2)cc1 [Example 141, N-{4-[4-(4,6-Dimethyl-pyridin-2-yl)-piperazin-1-yl]-phenyl}-2-[1-(4-methoxy-but-2-enyl)-5-methyl-3-phenyl-1H-pyrrol-2-yl]-2-oxo-acetamide]	1 to 10 (≈ 1.73 to 17.3 µM)	< 1	< 1	1 to 10 (≈ 1.73 to 17.3 µM)	1 to 10 (≈ 1.73 to 17.3 µM)	1 to 10 (≈ 1.73 to 17.3 µM)	> 10	> 10	> 10	> 10	> 10	> 10	–
COCCCCn1c(C)cc(-c2ccccc2)c1C(=O)C(=O)Nc1ccc(N2CCN(c3cc(C)cc(C)n3)CC2)cc1 [Example 142, N-{4-[4-(4,6-Dimethyl-pyridin-2-yl)-piperazin-1-yl]-phenyl}-2-[1-(4-methoxy-butyl)-5-methy-3-phenyl-1H-pyrrol-2-yl]-2-oxo-acetamide]	–	–	–	–	–	–	–	–	–	–	–	–	MIC grade, A. flavus [1]: 3 (A grade of 3 represents an MIC of less than 1 mg/L); MIC grade, A. fumigatus 210 [2]: 3 (A grade of 3 represents an MIC of less than 1 mg/L); MIC grade, A. fumigatus [3]: 3 (A grade of 3 represents an MIC of less than 1 mg/L); MIC grade, A. niger [4]: 3 (A grade of 3 represents an MIC of less than 1 mg/L); MIC grade, A. terreus 49 [5]: 3 (A grade of 3 represents an MIC of less than 1 mg/L); MIC grade, A. terreus [6]: 3 (A grade of 3 represents an MIC of less than 1 mg/L); MIC grade, A. flavus [7]: 3 (A grade of 3 represents an MIC of less than 1 mg/L); MIC grade, A. fumigatus 210 ([8]; MIC banded into grades): 3 (A grade of 3 represents an MIC of less than 1 mg/L); MIC grade, A. fumigatus ([9]; MIC banded into grades): 3 (A grade of 3 represents an MIC of less than 1 mg/L); MIC grade, A. niger [10]: 3 (A grade of 3 represents an MIC of less than 1 mg/L); MIC grade, A. terreus 49 ([11]; MIC banded into grades): 3 (A grade of 3 represents an MIC of less than 1 mg/L); MIC grade, A. terreus ([12]; MIC banded into grades): 3 (A grade of 3 represents an MIC of less than 1 mg/L)
Cc1cc(-c2ccccc2)c(C(=O)C(=O)Nc2ccc(N3CCCCC3)cc2)n1C [Example 143, 2-(1,5-Dimethyl-3-phenyl-1H-pyrrol-2-yl)-2-oxo-N-(4-piperidin-1-yl-phenyl)-acetamide]	< 1	< 1	< 1	< 1	< 1	< 1	< 1	< 1	< 1	< 1	< 1	< 1	–
Cc1cc(-c2ccccc2)c(C(=O)C(=O)Nc2ccc(N3CCN(Cc4ccccc4)CC3)cc2)n1C [Example 144, N-[4-(4-Benzyl-piperazin-1-yl)-phenyl]-2-(1,5-dimethyl-3-phenyl-1H-pyrrol-2-yl)-2-oxo-acetamide]	< 1	< 1	< 1	< 1	< 1	< 1	< 1	< 1	< 1	< 1	< 1	< 1	–
Cc1cc(-c2ccccc2)c(C(=O)C(=O)Nc2ccc(N3CCN(C(=O)C(C)C)CC3)cc2)n1C [Example 145, 2-(1,5-Dimethyl-3-phenyl-1H-pyrrol-2-yl)-N-[4-(4-isobutyryl-piperazin-1-yl)-phenyl]-2-oxo-acetamide]	< 1	< 1	< 1	< 1	< 1	< 1	< 1	< 1	< 1	1 to 10 (≈ 2.12 to 21.2 µM)	< 1	< 1	–
Cc1cc(C)nc(N2CCN(c3ccc(NC(=O)C(=O)c4c(-c5ccccc5)cc(C)n4Cc4coc(C)n4)cc3)CC2)c1 [Example 146, N-{4-[4-(4,6-Dimethyl-pyridin-2-yl)-piperazin-1-yl]-phenyl}-2-[5-methyl-1-(2-methyl-oxazol-4-ylmethyl)-3-phenyl-1H-pyrrol-2-yl]-2-oxo-acetamide]	1 to 10 (≈ 1.7 to 17 µM)	< 1	< 1	1 to 10 (≈ 1.7 to 17 µM)	1 to 10 (≈ 1.7 to 17 µM)	1 to 10 (≈ 1.7 to 17 µM)	> 10	> 10	< 1	1 to 10 (≈ 1.7 to 17 µM)	> 10	> 10	–
Cc1cc(-c2ccccc2)c(C(=O)C(=O)Nc2ccc(-c3ncco3)cc2)n1C [Example 147, 2-(1,5-Dimethyl-3-phenyl-1H-pyrrol-2-yl)-N-(4-oxazol-2-yl-phenyl)-2-oxo-acetamide]	< 1	< 1	< 1	< 1	< 1	< 1	< 1	< 1	< 1	< 1	< 1	< 1	–
Cc1cc(-c2ccccc2)c(C(=O)C(=O)Nc2ccc(-c3ncco3)c(F)c2)n1C [Example 148, 2-(1,5-Dimethyl-3-phenyl-1H-pyrrol-2-yl)-N-[3-fluoro-4-oxazole-2-yl-phenyl)-2-oxo-acetamide]	< 1	< 1	< 1	< 1	< 1	< 1	< 1	1 to 10 (≈ 2.48 to 24.8 µM)	< 1	< 1	< 1	< 1	–
COCCn1c(C)cc(-c2ccccc2)c1C(=O)C(=O)Nc1ccc(-c2ncco2)cc1 [Example 149, 2-[1-(2-Methoxy-ethyl)-5-methyl-3-phenyl-1H-pyrrol-2-yl]-N-(4-oxazol-2-yl-phenyl)-2-oxo-acetamide]	< 1	< 1	< 1	< 1	< 1	< 1	> 10	1 to 10 (≈ 2.33 to 23.3 µM)	1 to 10 (≈ 2.33 to 23.3 µM)	< 1	1 to 10 (≈ 2.33 to 23.3 µM)	1 to 10 (≈ 2.33 to 23.3 µM)	–
Cc1cc(-c2ccccc2)c(C(=O)C(=O)Nc2ccc(N3CCN(C(C)C(C)C)CC3)cc2)n1C (stereo not drawn) [Example 150, 2-(1,5-Dimethyl-3-phenyl-1H-pyrrol-2-yl)-N-{4-[4-(1,2-dimethyl-propyl)-piperazin-1-yl]-phenyl}-2-oxo-acetamide]	< 1	< 1	< 1	< 1	< 1	< 1	< 1	< 1	< 1	< 1	< 1	< 1	–
COCC(C)N1CCN(c2ccc(NC(=O)C(=O)c3c(-c4ccccc4)cc(C)n3C)cc2)CC1 (stereo not drawn) [Example 151, 2-(1,5-Dimethyl-3-phenyl-1H-pyrrol-2-yl)-N-{4-[4-(2-methoxy-1-methyl-ethyl)-piperazin-1-yl]-phenyl}-2-oxo-acetamide]	< 1	< 1	< 1	< 1	< 1	< 1	< 1	< 1	< 1	< 1	< 1	< 1	–
Cc1cc(-c2ccccc2)c(C(=O)C(=O)Nc2ccc(N3CCN(C(C)Cc4ccco4)CC3)cc2)n1C (stereo not drawn) [Example 152, 2-(1,5-Dimethyl-3-phenyl-1H-pyrrol-2-yl)-N-{4-[4-(2-furan-2-yl-1-methyl-ethyl)-piperazin-1-yl]-phenyl}-2-oxo-acetamide]	< 1	< 1	< 1	< 1	< 1	< 1	< 1	< 1	< 1	< 1	< 1	< 1	–
